The results in this text go back to ChEMBL document CHEMBL4330159, “Isoquinoline Alkaloids from Berberis vulgaris as Potential Lead Compounds for the Treatment of Alzheimer's Disease” (J Nat Prod, 2019).

For one series, the species on record is Homo sapiens. Kind of series: Selectivity index, ratio of IC50 for human BuChE to IC50 for human AChE.
The target in the next series is Acetylcholinesterase (Homo sapiens, UniProt P22303).
The target of series [1] is T1, Cholinesterase (Homo sapiens, UniProt P06276). Kind of series: Inhibition of human BuChE using butyrylthiocholine iodide as substrate measured for 1 min by Ellman's method. (In Ellman's method for cholinesterases, released thiocholine reacts with DTNB.)
T1 sequence (P06276 whole entry): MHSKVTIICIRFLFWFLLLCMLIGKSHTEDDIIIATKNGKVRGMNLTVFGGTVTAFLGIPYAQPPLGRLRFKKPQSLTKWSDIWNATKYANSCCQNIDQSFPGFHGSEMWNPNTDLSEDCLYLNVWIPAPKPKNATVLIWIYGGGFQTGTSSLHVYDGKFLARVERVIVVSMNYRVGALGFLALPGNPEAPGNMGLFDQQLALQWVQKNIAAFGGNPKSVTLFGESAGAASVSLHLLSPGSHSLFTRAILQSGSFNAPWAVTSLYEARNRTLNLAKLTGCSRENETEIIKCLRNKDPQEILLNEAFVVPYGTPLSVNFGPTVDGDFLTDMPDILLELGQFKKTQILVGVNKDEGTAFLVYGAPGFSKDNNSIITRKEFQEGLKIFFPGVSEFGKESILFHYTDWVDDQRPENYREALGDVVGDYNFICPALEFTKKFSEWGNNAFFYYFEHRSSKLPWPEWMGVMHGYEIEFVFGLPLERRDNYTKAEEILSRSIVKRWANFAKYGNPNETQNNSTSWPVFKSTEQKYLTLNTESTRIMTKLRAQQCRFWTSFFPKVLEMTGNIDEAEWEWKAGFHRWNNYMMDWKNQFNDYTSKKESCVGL
The target in the next series is T2, Prolyl endopeptidase (Homo sapiens, UniProt P48147).
T2 sequence (P48147 whole entry): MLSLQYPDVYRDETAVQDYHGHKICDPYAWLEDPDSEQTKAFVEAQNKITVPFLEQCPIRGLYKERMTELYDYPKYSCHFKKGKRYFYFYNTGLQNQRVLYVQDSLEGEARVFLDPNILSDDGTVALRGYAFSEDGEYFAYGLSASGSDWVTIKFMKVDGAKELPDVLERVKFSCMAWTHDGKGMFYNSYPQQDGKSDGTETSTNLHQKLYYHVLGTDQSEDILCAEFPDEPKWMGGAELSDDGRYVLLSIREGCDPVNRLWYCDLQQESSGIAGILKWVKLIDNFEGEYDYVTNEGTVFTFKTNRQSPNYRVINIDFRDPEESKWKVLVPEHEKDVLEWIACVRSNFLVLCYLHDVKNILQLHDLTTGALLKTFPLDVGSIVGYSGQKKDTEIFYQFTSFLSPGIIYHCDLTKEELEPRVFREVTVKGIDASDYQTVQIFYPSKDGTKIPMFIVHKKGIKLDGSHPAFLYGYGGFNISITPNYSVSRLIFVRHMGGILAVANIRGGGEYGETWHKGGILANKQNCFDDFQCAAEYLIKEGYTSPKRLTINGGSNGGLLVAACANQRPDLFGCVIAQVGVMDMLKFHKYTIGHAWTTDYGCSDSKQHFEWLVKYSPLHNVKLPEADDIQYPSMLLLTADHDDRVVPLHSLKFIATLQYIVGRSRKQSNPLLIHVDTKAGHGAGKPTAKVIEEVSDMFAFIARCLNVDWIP
Briefly: Inhibition of POP (unknown origin) using (Z)-Gly-Pro-p-nitroanilide as substrate preincubated for 5 mins followed by substrate addition and measured after 30 mins by spectrophotometric method.

Series [2] deals with T1, Cholinesterase. Briefly: Mixed-type inhibition of human BuChE assessed as enzyme-inhibitor complex using butyrylthiocholine iodide as substrate by Lineweaver-Burk plot analysis.
The nature of series [3]: Permeability of the compound after 2.45 hrs by PAMPA. Format: ADME. As to conditions: read-out: permeability. (In PAMPA a lipid-coated filter parts donor from acceptor wells.)
Series [4] concerns the target Glycogen synthase kinase-3 beta (Homo sapiens) (UniProt P49841). Kind of series: Inhibition of GSK3B (unknown origin) at 10 uM relative to control.
Series [5] has as its target T1, Cholinesterase. Kind of series: Mixed-type inhibition of human BuChE assessed as enzyme-substrate-inhibitor complex using butyrylthiocholine iodide as substrate by Lineweaver-Burk plot analysis.

The term IC50 denotes the concentration at which inhibition is half-maximal. A low value points to greater potency in that assay. As a reminder, the Ki is the dissociation constant of the complex between target and ligand, obtained from inhibition or displacement. The term inhibition denotes the percentage by which the read-out fell short of the control. Low values mean a response near the control, high ones a response far below the control.

The structures appear in SMILES notation.

Chain of Acetylcholinesterase (P22303 whole entry): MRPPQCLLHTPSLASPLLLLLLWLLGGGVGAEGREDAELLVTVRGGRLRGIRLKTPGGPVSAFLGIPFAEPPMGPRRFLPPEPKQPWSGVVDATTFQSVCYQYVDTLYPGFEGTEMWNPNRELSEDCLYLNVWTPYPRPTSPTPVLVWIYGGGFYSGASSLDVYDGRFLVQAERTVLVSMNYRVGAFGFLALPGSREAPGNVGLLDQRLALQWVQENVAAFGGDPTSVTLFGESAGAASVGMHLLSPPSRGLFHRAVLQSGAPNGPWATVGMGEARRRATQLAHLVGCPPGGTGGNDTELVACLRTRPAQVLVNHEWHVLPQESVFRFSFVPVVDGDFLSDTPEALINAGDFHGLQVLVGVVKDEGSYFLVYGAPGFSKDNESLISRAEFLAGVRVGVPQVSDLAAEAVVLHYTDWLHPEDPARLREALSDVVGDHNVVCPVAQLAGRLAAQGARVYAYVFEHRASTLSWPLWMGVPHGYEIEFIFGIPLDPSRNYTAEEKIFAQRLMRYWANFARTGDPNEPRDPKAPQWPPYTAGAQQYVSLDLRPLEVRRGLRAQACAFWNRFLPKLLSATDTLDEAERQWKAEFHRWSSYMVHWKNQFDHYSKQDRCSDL
Chain of Glycogen synthase kinase-3 beta (Homo sapiens) (P49841 whole entry, looked up): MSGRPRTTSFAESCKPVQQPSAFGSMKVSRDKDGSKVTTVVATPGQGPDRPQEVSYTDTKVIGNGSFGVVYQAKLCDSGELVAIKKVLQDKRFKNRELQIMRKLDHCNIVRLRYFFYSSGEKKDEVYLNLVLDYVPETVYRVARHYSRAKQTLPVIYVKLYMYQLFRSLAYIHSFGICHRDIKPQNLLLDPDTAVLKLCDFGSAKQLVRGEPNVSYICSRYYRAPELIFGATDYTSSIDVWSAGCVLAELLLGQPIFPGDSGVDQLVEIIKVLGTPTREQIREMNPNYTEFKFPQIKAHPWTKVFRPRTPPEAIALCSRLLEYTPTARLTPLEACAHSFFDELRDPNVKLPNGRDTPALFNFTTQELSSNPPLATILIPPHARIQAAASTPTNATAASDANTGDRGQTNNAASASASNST
Description for Acetylcholinesterase: Inhibition of human AChE using acetylthiocholine iodide as substrate measured for 1 min by Ellman's method

`COc1cc2c(cc1O)C(Cc1ccc(O)c(Oc3cc(CC4c5cc(O)c(OC)cc5CCN4C)ccc3OC)c1)N(C)CC2` (stereo not given): the Ratio IC50 in the series filed under Homo sapiens came to 0.1. The IC50 against Acetylcholinesterase was found to be 66 µM; against Cholinesterase [1], 6.9 µM.

As for `COc1cc2c(cc1Oc1c3c(cc(OC)c1OC)CCN(C)C3)C(Cc1ccc(O)cc1)N(C)CC2` (stereo not given), the Ratio IC50 in the series listed under Homo sapiens was 0.2. The IC50 on Acetylcholinesterase is > 100 µM; at Prolyl endopeptidase, > 200 µM; at Cholinesterase [1] it was 68 µM.

In the case of `CCN(CC)Cc1cc2cc(c1O)Oc1ccc(cc1)C[C@H]1c3cc(c(OC)cc3CCN1C)Oc1c(OC)c(OC)cc3c1[C@@H](C2)N(C)CC3`, the IC50 against Acetylcholinesterase was 68 µM; against Cholinesterase [1], > 100 µM.

Take `COc1cc2c3cc1Oc1c(O)c(OC)cc4c1[C@H](Cc1ccc(cc1)Oc1cc(ccc1O)C[C@H]3N(C)CC2)N(C)CC4`: the inhibitory constant (Ki) amounted to 6.41 µM at Cholinesterase [2] and 39.7 µM on Cholinesterase [5]. Moreover, in series [3], the Papp at 2.45 h was 1.8 ×10⁻⁶ cm/s. In series [4], this compound displayed an inhibition of 10%. In addition, in the series listed under Homo sapiens, the Ratio IC50 was 0.008. Moreover, the IC50 was > 100 µM at Acetylcholinesterase, 189 µM at Prolyl endopeptidase and 0.8 µM at Cholinesterase [1].

On to `COc1cc2c3cc1Oc1c(OC)c(OC)cc4c1[C@@H](Cc1ccc(O)c(c1)Oc1ccc(cc1)C[C@@H]3N(C)CC2)N(C)CC4` [BERBAMINE], for which the Ratio IC50 in the series filed under Homo sapiens amounted to 0.4. Besides, the 50% inhibitory concentration (IC50) was > 100 µM against Acetylcholinesterase, > 200 µM against Prolyl endopeptidase and > 100 µM against Cholinesterase [1].

Regarding `COc1ccc2cc3[n+](cc2c1OC)CCc1cc2c(cc1-3)OCO2` [BERBERINE], the Papp at 2.45 h in series [3] was 0.1 ×10⁻⁶ cm/s.

Turning to `COc1ccc2c3c1O[C@H]1C[C@@H](O)C=C[C@@]31CCN(C)C2` [GALANTAMINE], the IC50 at Prolyl endopeptidase was > 200 µM.

With `C/C=C1\[C@H]2C=C(C)C[C@]1(N)c1ccc(=O)[nH]c1C2` [HUPERZINE A], at Cholinesterase [1], the IC50 is > 100 µM.

As for `COc1cc2c3cc1Oc1c(O)c(OC)cc4c1[C@@H](Cc1ccc(O)c(c1)Oc1ccc(cc1)C[C@@H]3N(C)CC2)N(C)CC4` [OBAMEGINE], the Ratio IC50 in the series filed under Homo sapiens stood at 1.5. In addition, the IC50 was 97 µM at Acetylcholinesterase, > 200 µM on Prolyl endopeptidase and > 100 µM against Cholinesterase [1].

As for `COc1ccc2cc3n(c(=O)c2c1OC)CCc1cc2c(cc1-3)OCO2` [OXYBERBERINE], the Ratio IC50 in the series filed under Homo sapiens was 1.1. Besides, the IC50 against Acetylcholinesterase is > 100 µM; at Prolyl endopeptidase, > 200 µM; on Cholinesterase [1], 68 µM.

Regarding `COc1cc2c(cc1OC)-c1cc3ccc(OC)c(OC)c3c[n+]1CC2` [PALMITINE], in the series filed under Homo sapiens, the Ratio IC50 came to 86. For the same compound, the IC50 was > 200 µM against Prolyl endopeptidase and > 100 µM against Cholinesterase [1].
